Common to all, as to assay: growth of human tumour cells (NCI), 48 h
For experiment [1], the system named is MDA-MB-435.
The subject of experiment [2] is 786-0.
In experiment [3] the test system is M14.
Experiment [4] has as its system T47D.
The test system of experiment [5] is SK-MEL-5.
In experiment [6] the test system is SK-OV-3.
Experiment [7] has as its system SF-268.
Experiment [8] has as its system OVCAR-5.
In experiment [9] the test system is CAKI-1.
For experiment [10], the system named is A498.
Experiment [11] concerns SF-539.
Experiment [12] concerns MDA-N.
Experiment [13] deals with A549.
The subject of experiment [14] is Malme-3M.
Experiment [15] deals with NCI-H226.
The test system of experiment [16] is K562.
The test system of experiment [17] is MCF7.
Experiment [18] relates to COLO 205.
The subject of experiment [19] is HCC 2998.
The subject of experiment [20] is SR.

Molecules are shown by their SMILES.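 How tested: cells in 96-well plates exposed to compound for 48 hours at five concentrations. Here, GI50 denotes the concentration required for 50% inhibition of growth.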 Calls of active or inactive are those of the source. Rule as the data show it: active = GI50 up to about 1.1 µM and inactive = higher.

Turning to `CCn1c2c(c3ccccc3c1=O)C(=O)c1ccccc1-2`, the GI50 was > 100 µM (inactive) in [1]; > 100 µM (inactive) in [2]; > 100 µM (inactive) in experiment [3]; > 100 µM (inactive) in [4]; 50.1 µM (inactive) in experiment [5]; > 100 µM (inactive) in [6]. In addition, the GI50 in experiment [7] was > 100 µM (inactive); in experiment [8], > 100 µM (inactive); in experiment [9] it was > 100 µM (inactive); in experiment [10], > 100 µM (inactive); in experiment [11], 19.1 µM (inactive); in experiment [12] it was > 100 µM (inactive). Besides, the GI50 in experiment [13], in experiment [14], in experiment [15], in [16], in experiment [17] and in experiment [18] was > 100 µM (inactive) each time.

For the compound `CSc1nc(Cl)c(Br)c(Nc2cnc(O)nc2O)n1`, the GI50 in experiment [1] was 27.5 µM (inactive); in [2] it was 13.4 µM (inactive); in [3], 27.9 µM (inactive); in experiment [4] it was 13.8 µM (inactive); in experiment [5] it was 19.6 µM (inactive); in experiment [6] it was 19.4 µM (inactive). In addition, the GI50 in experiment [9] is 1.79 µM (inactive); in [19] it was 17.8 µM (inactive); in experiment [10], 11.6 µM (inactive); in [11] it was 20.1 µM (inactive); in experiment [12], 23 µM (inactive); in [13], 19.2 µM (inactive). For the same compound, the GI50 in experiment [14] is 20.7 µM (inactive); in experiment [15], 20.1 µM (inactive); in experiment [16], 26.9 µM (inactive); in [17], 38 µM (inactive); in experiment [18], 16.8 µM (inactive).

With `CCC1C(=O)OCc2c1cc1n(c2=O)Cc2cc3ccccc3nc2-1` (stereo not drawn), the GI50 in [1] was 44.3 µM (inactive); in [2] it was 3.23 µM (inactive); in [3] it was 3.38 µM (inactive); in experiment [4], 4.38 µM (inactive); in experiment [5] it was 5.79 µM (inactive); in experiment [6] it was 43.6 µM (inactive). Further, the GI50 in [7] is 3.67 µM (inactive); in experiment [8], 33.4 µM (inactive); in [9], 2.17 µM (inactive); in [19] it was 25.9 µM (inactive); in experiment [10] it was 10.7 µM (inactive); in experiment [11] it was 1.73 µM (inactive). Besides, the GI50 in experiment [12] is 45.6 µM (inactive); in experiment [13] it was 5.09 µM (inactive); in [14] it was 60.3 µM (inactive); in experiment [15], 10.8 µM (inactive); in [16], 18.1 µM (inactive); in experiment [17] it was 1.59 µM (inactive). In experiment [18], the GI50 is 72.3 µM (inactive).

`COc1cc(C2c3cccc4cccc(c34)C3CCC(=O)N32)cc(OC)c1O` (stereo not drawn): the GI50 in [1], in experiment [2], in [3], in [4], in experiment [6] and in experiment [8] was > 50 µM (inactive) in each case. Besides, the GI50 in experiment [10] was > 50 µM (inactive); in experiment [11], > 50 µM (inactive); in experiment [12], > 50 µM (inactive); in [13], 42.7 µM (inactive); in [20], > 50 µM (inactive); in experiment [15], > 50 µM (inactive). Moreover, the GI50 in experiment [16], in experiment [17] and in experiment [18] was > 50 µM (inactive) throughout.

Regarding `N#CC(Cc1ccccc1)N(CCC1=CCCCC1)C(c1ccccc1)c1ccccc1` (stereo not drawn), the GI50 in [1] was 41.1 µM (inactive); in [2] it was > 100 µM (inactive); in experiment [3] it was 18.8 µM (inactive); in [4], 42.3 µM (inactive); in experiment [5] it was 28 µM (inactive); in [6], > 100 µM (inactive). Also, the GI50 is > 100 µM (inactive) in experiment [7]; 95.7 µM (inactive) in experiment [8]; > 100 µM (inactive) in [9]; 32 µM (inactive) in experiment [19]; > 100 µM (inactive) in experiment [10]; 24.4 µM (inactive) in experiment [12]. Moreover, the GI50 was 70.3 µM (inactive) in experiment [13]; > 100 µM (inactive) in experiment [14]; 80.4 µM (inactive) in [16]; 42.4 µM (inactive) in [17]; 35.2 µM (inactive) in experiment [18].

Take `O=C(O)CCC(=O)OC1N=C(c2ccccc2Cl)c2cc([N+](=O)[O-])ccc2NC1=O` (stereo not drawn): the GI50 is > 100 µM (inactive) in experiment [1]; 42.1 µM (inactive) in [2]; > 100 µM (inactive) in [3]; 81.3 µM (inactive) in experiment [4]; > 100 µM (inactive) in [6]; 67.5 µM (inactive) in [7]. For the same compound, the GI50 in experiment [8], in experiment [9], in [19], in [10], in experiment [12] and in experiment [13] was > 100 µM (inactive) in each case. The GI50 in experiment [14] is > 100 µM (inactive); in experiment [17], 33 µM (inactive).

Consider `CCCCCCCCCCC[N+]1(Cc2ccccc2)CC2CCN(Cc3ccccc3)CC2C1` (stereo not drawn), for which the GI50 in experiment [2] was 1.03 µM (active); in experiment [3] it was 0.383 µM (active); in experiment [4] it was 0.166 µM (active); in experiment [5], 0.173 µM (active); in [6], 1.75 µM (inactive); in experiment [7], 0.555 µM (active). For the same compound, the GI50 in [8] is 1.55 µM (inactive); in experiment [9] it was 1.4 µM (inactive); in experiment [19], 0.649 µM (active); in experiment [10], 1.5 µM (inactive); in [11], 1.15 µM (inactive); in experiment [12] it was 0.233 µM (active). Also, the GI50 in experiment [13] was 1.2 µM (inactive); in experiment [20] it was 0.0546 µM (active); in experiment [14], 0.342 µM (active); in experiment [15], 0.67 µM (active); in experiment [16], 0.125 µM (active); in experiment [17], 0.447 µM (active). In addition, the GI50 in [18] is 1.01 µM (active).

On to `COC(=O)C1CC23C4=C(CCC41)CCC1CN4CC(C)C(CC(OC(C)=O)C12COC(C)=O)C43O` (stereo not drawn), for which the GI50 in [1], in experiment [2], in [3], in experiment [4], in experiment [5] and in experiment [6] was > 100 µM (inactive) throughout. The GI50 in experiment [7], in experiment [8], in [9], in experiment [19], in experiment [10] and in experiment [11] was > 100 µM (inactive) in each case. Also, the GI50 in experiment [12], in experiment [13], in experiment [14], in experiment [16], in [17] and in [18] was > 100 µM (inactive) each time.

Regarding `Cn1ccnc1SC(F)(F)c1nc2ccccc2o1`, the GI50 in experiment [1], in experiment [2], in experiment [3], in [4], in experiment [5] and in experiment [6] was > 100 µM (inactive) in each case. Besides, the GI50 in experiment [7], in [8], in experiment [9], in experiment [19], in experiment [10] and in experiment [11] was > 100 µM (inactive) in each case. The GI50 in [12], in experiment [13], in experiment [14], in experiment [15], in experiment [16] and in [17] was > 100 µM (inactive) in each case. Besides, in experiment [18], the GI50 was > 100 µM (inactive).

On to `COP(=O)(OC)C(O)/C=C/c1ccco1` (stereo not drawn), for which the GI50 in experiment [1], in experiment [2], in experiment [3], in experiment [4], in [5] and in experiment [6] was > 100 µM (inactive) throughout. The GI50 in experiment [7], in experiment [8], in [9], in experiment [10], in experiment [12] and in experiment [13] was > 100 µM (inactive) each time. In addition, the GI50 in experiment [20], in [14], in experiment [15], in experiment [16], in experiment [17] and in [18] was > 100 µM (inactive) each time.

Turning to `Cc1ccc(C(=O)Nc2ccc(CP(=O)(O)O)cc2)cc1NC(=O)c1cccc(NC(=O)Nc2cccc(C(=O)Nc3cc(C(=O)Nc4ccc(CP(=O)(O)O)cc4)ccc3C)c2)c1`, the GI50 in [1], in experiment [2], in [3], in experiment [4], in experiment [5] and in experiment [6] was > 100 µM (inactive) in each case. Moreover, the GI50 in experiment [7], in [8], in [9], in [19], in experiment [10] and in [11] was > 100 µM (inactive) throughout. Also, the GI50 in experiment [12], in experiment [13], in experiment [14], in [15], in experiment [16] and in experiment [17] was > 100 µM (inactive) each time. Moreover, the GI50 in experiment [18] was > 100 µM (inactive).
